Measurements from ChEMBL document CHEMBL3244372, “Cholecystokinin (pancreozymin). 3. Synthesis and properties of an analogue of the C-terminal heptapeptide with serine sulfate replacing tyrosine sulfate” (1977).
Activity calls are given as the source filed them. The rule behind the calls is not given here. Square brackets hold non-standard residues; d marks the D form. Peptide text beside a SMILES is read from it. sY = N[C@@H](Cc1ccc(OS(=O)(=O)O)cc1)C(=O)O

Key:
[1] = species on record: Cavia porcellus; test: Increase in [Ca2+] efflux from guinea pig pancreatic acinar cells measured for 5 mins relative to control; format: functional
[2] = Increase in [Ca2+] efflux from guinea pig pancreatic acinar cells at 10^-8 M assessed per minute relative to control; format: functional, Cavia porcellus
[3] = species on record: Cavia porcellus; test: Increase in [Ca2+] efflux from guinea pig pancreatic acinar cells at 3 x 10^-11 M measured for 5 mins relative to control; format: functional

Row | SMILES | Activity [1] | Activity [2] [%] | Activity [3]
1 | CSCC[C@H](NC(=O)[C@H](Cc1c[nH]c2ccccc12)NC(=O)CNC(=O)[C@H](CCSC)NC(=O)[C@@H](N)COS(=O)(=O)O)C(=O)N[C@@H](CC(=O)O)C(=O)N[C@@H](Cc1ccccc1)C(N)=O | Active |  | 
2 | CSCC[C@H](NC(=O)[C@H](Cc1c[nH]c2ccccc12)NC(=O)CNC(=O)[C@H](CCSC)NC(=O)[C@@H](N)CO)C(=O)N[C@@H](CC(=O)O)C(=O)N[C@@H](Cc1ccccc1)C(N)=O (H-SMGWMDF-NH2) | Active |  | 
3 | CSCC[C@H](NC(=O)[C@H](Cc1c[nH]c2ccccc12)NC(=O)CNC(=O)[C@H](CCSC)NC(=O)[C@@H](N)Cc1ccc(O)cc1)C(=O)N[C@@H](CC(=O)O)C(=O)N[C@@H](Cc1ccccc1)C(N)=O (H-YMGWMDF-NH2) | Active |  | 
4 | CSCC[C@H](NC(=O)[C@H](Cc1c[nH]c2ccccc12)NC(=O)CNC(=O)[C@H](CCSC)NC(=O)[C@@H](N)Cc1ccc(OS(=O)(=O)O)cc1)C(=O)N[C@@H](CC(=O)O)C(=O)N[C@@H](Cc1ccccc1)C(N)=O (H-[sY]MGWMDF-NH2) | Active | 26.2 | Active
